Laboratory results as given in patent US9216186B2, “Combination of a pyrroloquinoline compound and an aminoglycodise antimicrobial agent” (HELPERBY THERAPEUTICS LIMITED, priority 2010, dated 2015).
Values after ≈ are worked out from the molar mass of the structure shown. Values joined by “and” are separate entries in the source; they are usually repeats but may differ in a detail not shown here. Equal values may be shown once. Where a name gives a salt, the structure may show the parent alone. Read-outs that look alike come from different tables or passages of the source.

Assays:
Assay type in all cases: cell-based
[1] = tested on: Staphylococcus aureus (Oxford); assay: Minimum inhibitory concentration (MIC), broth dilution in Iso-Sensitest broth; settings: S. aureus (Oxford), overnight incubation at 37° C.
Method: Staphylococcus aureus (Oxford); Gram positive; Reference strain.
Iso-Sensitest Broth (Oxoid) was used for evaluation of Minimum inhibitory concentrations (MICs), susceptibility tests for antimicrobials, and efficacy of antimicrobial combinations.
The stock solution of each drug was diluted to required concentrations. 10 μl of drug from each dilution was taken and mixed with 290 μl of culture with 10^6 of bacterial cells on a 96-well plate to make the final required concentrations (μg/ml).
The plates were read at 405 nm using a 96-well plate reader Elx 800 equipped with a 405-nm filter (Bio-Tek) before and after incubation. The MIC values of the drugs were determined by comparison of the optical density reading between prior and post drug treatment.

[2] = tested on: Staphylococcus aureus (Oxford); assay: Minimum bactericidal concentration (MBC), subculture on drug-free TSA plates; settings: S. aureus (Oxford)
[3] = tested on: log phase Pseudomonas aeruginosa (clinical isolate); assay: Chequerboard analysis of log phase bacteria, optical density at 405 nm / MIC; settings: for MIC: single agent, range up to 64 μg/ml HT61, 16 μg/ml tobramycin
Method: (§1) Pseudomonas aeruginosa (clinical isolate).
P. aeruginosa was grown in 10 ml of NB overnight at 37° C. with continuous shaking at 120 rpm. The overnight cultures were diluted 1000× with iso-sensitest broth to obtain a cell suspension containing the bacteria at 10^6 CFU/ml. The cultures were incubated at 37° C. with shaking for 1-2 hours served as log-phase cultures. Viability of the bacteria was estimated by colony forming unit (CFU) counts.
The two drugs were serially diluted twofold to 0 and combined in a pattern of an array.
The optical density of the bacterial cells was read at 405 nm using a plate reader (Bio TEK). The MIC concentration was determined as the lowest concentration of drug which inhibits the bacterial growth. The MIC values of the drugs were determined by comparison of the optical density reading between prior and post drug treatment.

[4] = tested on: stationary phase Pseudomonas aeruginosa (clinical isolate); assay: Kill curve by CFU counts against stationary phase bacteria
Method: as §1
A single colony of Ps. aeruginosa was inoculated in 10 ml of Nutrient Broth No. 2 (NB) (Oxoid) which was incubated overnight at 37° C. with continuous shaking at 120 rpm. 200 μl of the overnight culture was added into a 500 ml screw-cap which contained 100 ml of NB. The 100 ml culture was incubated at 37° C. with continuous shaking for 5 to 6 days. The cultures were diluted with phosphate buffered saline to 10^7 CFU/ml.
The activities of the combination and each of the individual drugs were measured by CFU counts at 0, 2, 4, 6 and 8 hours. CFU counts were performed as follows: from serial 10-fold dilutions of the experimental cultures, 100 μl samples were added to triplicate plates of nutrient agar plates (Oxoid). Colony forming units (CFU) were counted after incubation of the plates at 37° C. for 24 hours.

[5] = tested on: clinically latent microorganisms; assay: Screening of compounds for ability to kill clinically latent microorganisms (method of WO2000028074); settings: observed by the Applicant using the method of WO2000028074
Source text: International Patent Application, Publication Number WO2000028074 describes a method of screening compounds to determine their ability to kill clinically latent microorganisms. […] This observation has necessitated the development of novel antimicrobials which may be used to kill clinically latent microorganisms.
By way of example, WO2000028074 describes a suitable method of screening compounds to determine their ability to kill clinically latent microorganisms. A typical method may include the following steps: • (1) growing a bacterial culture to stationary phase; • (2) treating the stationary phase culture with one or more antimicrobial agents at a concentration and or time sufficient to kill growing bacteria, thereby selecting a phenotypically resistant sub-population; • (3) incubating a sample of the phenotypically resistant subpopulation with one or more test compounds or agents; and • (4) assessing any antimicrobial effects against the phenotypically resistant subpopulation.

[6] = Staphylococcus aureus, read-out: MIC

Compound Gentamicin has an MIC [1] of 1 µg/mL and an MBC [2] of 8 µg/mL.

Work on Cc1nc2ccc(Oc3ccccc3)cc2c2c1CCN2CCc1ccccc1 [4-methyl-8-phenoxy-1-(2-phenylethyl)-2,3-dihydro-1H-pyrrolo[3,2-c]quinoline] yielded an MIC [1, 6] of 8 µg/mL and an MBC ([2]; Staphylococcus aureus, read-out: MBC) of 16 µg/mL (≈ 42.1 µM).

In the case of NC[C@H]1O[C@H](O[C@H]2[C@H](O)[C@@H](O[C@H]3O[C@H](CO)[C@@H](O)[C@H](N)[C@H]3O)[C@H](N)C[C@@H]2N)[C@H](N)C[C@@H]1O [Tobramycin], the MIC ([3]; Pseudomonas aeruginosa, log phase P. aeruginosa, read-out: MIC) is reported as 1 µg/mL, the “optical density at 405 nm” value ([3]; tobramycin 0.01563 μg/ml alone (HT61 0)) is reported as 3.25 and 3.14 and the “optical density at 405 nm” value ([3]; tobramycin 0.03125 μg/ml alone (HT61 0)) is reported as 3.24 and 3.18. The “optical density at 405 nm” value ([3]; tobramycin 0.0625 μg/ml alone (HT61 0)) was 3.16 and 3.09, the “optical density at 405 nm” value ([3]; tobramycin 0.125 μg/ml alone (HT61 0)) was 3.15 and 3.08 and the “optical density at 405 nm” value ([3]; tobramycin 0.25 μg/ml alone (HT61 0)) was 3.04 and 2.97. For the same compound, the “optical density at 405 nm” value ([3]; tobramycin 0.5 μg/ml alone (HT61 0)) was 2.19 and 2.18, the “optical density at 405 nm” value ([3]; tobramycin 1 μg/ml alone (HT61 0)) was 0.46 and the “optical density at 405 nm” value ([3]; tobramycin 2 μg/ml alone (HT61 0)) was 0.44 and 0.45. The “optical density at 405 nm” value ([3]; tobramycin 4 μg/ml alone (HT61 0)) was 0.47 and 0.50, the “optical density at 405 nm” value ([3]; tobramycin 8 μg/ml alone (HT61 0)) was 0.44 and the “activity alone against stationary phase P. aeruginosa” value ([4]; alone at 2 and 1 μg/ml) was “very low or no activities”.

For co-amoxiclav, the “activity against clinically latent microorganisms” value [5] was “little or no activity”.

With Cc1nc2ccc(Oc3ccccc3)cc2c2c1CCN2CCc1ccccc1 [HT61, 4-methyl-8-phenoxy-1-(2-phenylethyl)-2,3-dihydro-1H-pyrrolo[3,2-c]quinoline mesylate] the “optical density at 405 nm” value ([3]; HT61 1 μg/ml alone (tobramycin 0), mesylate) was 3.16 and 3.08, the “optical density at 405 nm” value ([3]; HT61 2 μg/ml alone (tobramycin 0), mesylate) was 3.12 and 3.11 and the “optical density at 405 nm” value ([3]; HT61 4 μg/ml alone (tobramycin 0), mesylate) was 3.11 and 3.10. The “optical density at 405 nm” value ([3]; HT61 8 μg/ml alone (tobramycin 0), mesylate) was 3.15 and 3.10, the “optical density at 405 nm” value ([3]; HT61 16 μg/ml alone (tobramycin 0), mesylate) was 3.11 and 3.07 and the “optical density at 405 nm” value ([3]; HT61 32 μg/ml alone (tobramycin 0), mesylate) was 3.09 and 3.04. The “optical density at 405 nm” value ([3]; HT61 64 μg/ml alone (tobramycin 0), mesylate) was 3.01 and 3.09, the MIC ([3]; log phase P. aeruginosa) was “no MIC” and the “MIC of HT61 in combination with tobramycin” value ([3]; with tobramycin at 0.5 μg/ml, log phase P. aeruginosa) was 16 µg/mL. The “activity alone against stationary phase P. aeruginosa” value ([4]; alone at 32, 16 and 8 μg/ml) was “slight or no activities”.

Work on NC[C@H]1O[C@H](O[C@H]2[C@H](O)[C@@H](O[C@H]3O[C@H](CO)[C@@H](O)[C@H](N)[C@H]3O)[C@H](N)C[C@@H]2N)[C@H](O)[C@@H](O)[C@@H]1O [Kanamycin] yielded an MIC [1, 6] of 8 µg/mL.

C/C(=C\C(=O)OCCCCCCCCC(=O)O)C[C@@H]1OC[C@H](C[C@@H]2O[C@H]2[C@@H](C)[C@H](C)O)[C@@H](O)[C@H]1O [mupirocin] was tested, and the “activity against clinically latent microorganisms” value [5] was “little or no activity”.

In the case of CC(=O)NC[C@H]1CN(c2ccc(N3CCOCC3)c(F)c2)C(=O)O1 [linezolid], the “activity against clinically latent microorganisms” value [5] is reported as “little or no activity”.

With CC[C@H]1OC(=O)[C@H](C)[C@@H](O[C@H]2C[C@@](C)(OC)[C@@H](O)[C@H](C)O2)[C@H](C)[C@@H](O[C@@H]2O[C@H](C)C[C@H](N(C)C)[C@H]2O)[C@](C)(O)C[C@@H](C)CN(C)[C@H](C)[C@@H](O)[C@]1(C)O [azithromycin] the “activity against clinically latent microorganisms” value [5] was “little or no activity”.
